How the values were obtained:
E. coli ATCC 078 = assay type: cell-based, Escherichia coli; details: Table 3, recombinant vs synthetic LG; mean ± SD of three independent experiments
Description: (§1) All experiments were conducted at least three different times.

E. coli ATCC 25922 [1] = assay type: cell-based, Escherichia coli; details: Table 3, recombinant vs synthetic LG; mean ± SD of three independent experiments
Description: as §1

[2] = tested on: S. Typhimurium ATCC 14028; assay type: cell-based, Salmonella Typhimurium; details: Table 3, recombinant vs synthetic LG; mean ± SD of three independent experiments
Description: as §1

S. Typhimurium C 7731 = assay type: cell-based, Salmonella Typhimurium; details: Table 3, recombinant vs synthetic LG; mean ± SD of three independent experiments
Description: as §1

P. aeruginosa ATCC 27853 = assay type: cell-based, Pseudomonas aeruginosa; details: Table 3, recombinant vs synthetic LG; mean ± SD of three independent experiments
Description: as §1

S. aureus ATCC 25923 = assay type: cell-based, Staphylococcus aureus; details: Table 3, recombinant vs synthetic LG; mean ± SD of three independent experiments
Description: as §1

S. aureus ATCC 29213 = assay type: cell-based, Staphylococcus aureus; details: Table 3, recombinant vs synthetic LG; mean ± SD of three independent experiments
Description: as §1

[3] = tested on: S. epidermidis ATCC 12228; assay type: cell-based, Staphylococcus epidermidis; details: Table 3, recombinant vs synthetic LG; mean ± SD of three independent experiments
Description: as §1

S. faecalis ATCC 29212 = assay type: cell-based, Streptococcus faecalis; details: Table 3, recombinant vs synthetic LG; mean ± SD of three independent experiments
Description: as §1

E. coli ATCC 25922 [4] = assay type: cell-based, Escherichia coli
Description: as §1
The salt ions were added to the BSA solution and configured into different final concentrations of salt ions (150 mM NaCl, 4.5 mM KCl, 6 µM NH4Cl, 8 µM ZnCl2, 1 mM MgCl2, 2 mM CaCl2, and 4 µM FeCl3) solutions. The method discribed as above was referred to determine the MIC value of rLG against E. coli ATCC 25922 in the presence of different concentrations of salt ions.

human red blood cells = test: Hemolytic activity assay; assay type: cell-based; details: at the highest peptide concentration (128 μM); human red blood cells, 37 °C 1 h; 0.1% Triton X-100 = 100%
Description: The collected blood of type B from healthy donor was centrifuged at 1000×g for 5 min to collect red blood cells. The red blood cells were then washed and resuspended in 10 mM PBS (pH 7.4). Fifty microliters of diluted red blood cells and an equal volume of peptide solution (2–128 µM) were incubated in a 96-well plate at 37 °C for 1 h. The red blood cell suspension treated with 0.1% Triton X-100 was used as a positive control (100% hemolysis), and untreated blood cell suspension was used as a negative control. The 96-well plate was centrifuged at 1000×g for 5 min at 4 °C, and then the supernatant was transferred to a new 96-well plate. The absorbance at OD570 was measured with a microplate reader.

E. coli ATCC 25922 [5] = test: Cell wall (outer membrane) permeabilization, NPN uptake; assay type: cell-based, Escherichia coli; details: at low concentrations (1, 2, and 4 µM); compared with melittin
Description: The cell wall permeability was determined by monitoring the fluorescence release of the fluorescent dye NPN (Sigma, USA). E. coli ATCC 25922 (OD600 = 0.2) and NPN (10 µM) were incubated in 5 mM HEPES buffer (containing 5 mM glucose, pH 7.4) for 30 min. Then, 100 µL of peptides (0.5–32 µM) and an equal volume of bacteria were added to a 96-well plate. An F-4500 fluorescence spectrophotometer (Hitachi, Japan) was used to detect the fluorescence intensity of different wells at a 350 nm excitation wavelength and 420 nm emission wavelength. The peptide-free and polymyxin B-containing fluorescence values were set as negative and positive controls.

E. coli ATCC 25922 [6] = test: Cytoplasmic membrane depolarization, DiSC3-5; assay type: cell-based, Escherichia coli
Description: DiSC3-5 was used to measure the change in plasma membrane potential after peptide treatment. E. coli ATCC 25922 (OD600 = 0.05) was incubated with 0.4 µM DiSC3-5 and 100 mM K^+ in 5 mM HEPES buffer (containing 20 mM glucose, pH 7.4) until the fluorescence decreased stably. […] A fluorescence spectrophotometer (Infinite 200 pro, Tecan, China) was used to record the fluorescence values at an excitation light wavelength of 622 nm and emission light wavelength of 670 nm.

E. coli ATCC 25922 [7] = test: Transmission electron microscopy (TEM); assay type: cell-based, Escherichia coli; details: 1/2 × MIC (1 μM), 37 °C 1 h
Description: E. coli ATCC 25922 was cultured to the logarithmic growth phase and centrifuged to obtain the bacteria. The bacteria were resuspended twice in 0.01 M PBS (pH 7.4) and diluted to OD600 = 0.3. The rLG and bacteria were mixed to a final concentration of 1/2 × MIC (1 μM), and the bacteria without peptide were used as a control. Both samples were incubated at 37 °C for 1 h. The incubated sample was centrifuged at 2500×g for 5 min and washed three times with 0.01 M PBS. Two milliliters of 2.5% glutaraldehyde buffer was added to the bacterial pellet, and the suspension was gently blown and fixed at 4 °C overnight. The cells were washed with 0.01 M PBS and fixed in 1% osmate buffer for 1 h. Then, different concentrations of ethanol were used for gradient dehydration (50%, 70%, 85%, 95% and 100%). Finally, the sample was prepared into ultrathin sections through the process of soaking and embedding, and a Hitachi H-7650 TEM (Hitachi, Japan) was used for observation.

E. coli ATCC 25922 [8] = assay type: cell-based, Escherichia coli; details: in the absence of physiological salts and serum

Sequence: FKRIVQRIKRFLRGGGGSFKRIVQRIKRFLR [rLG, recombinant LG expressed in P. pastoris as 6 × His-SUMO-LG and released by SUMO protease]
- MIC (E. coli ATCC 078): 1.22 ± 0.19 µM
- MIC (E. coli ATCC 25922 [1]): 1.77 ± 0.19 µM
- MIC [2]: 3.78 ± 0.44 µM
- MIC (S. Typhimurium C 7731): 1.33 ± 0.25 µM
- MIC (P. aeruginosa ATCC 27853): 4.44 ± 1.78 µM
- MIC (S. aureus ATCC 25923): 4.44 ± 1.78 µM
- MIC (S. aureus ATCC 29213): 2.00 ± 0.00 µM
- MIC [3]: 1.89 ± 0.11 µM
- MIC (S. faecalis ATCC 29212): 1.89 ± 0.11 µM
- MIC under physiological salt concentration, FeCl3 (E. coli ATCC 25922 [4]; 4 µM FeCl3): 2 µM
- MIC under physiological salt concentration, NH4Cl (E. coli ATCC 25922 [4]; 6 µM NH4Cl): 2 µM
- MIC under physiological salt concentration, ZnCl2 (E. coli ATCC 25922 [4]; 8 µM ZnCl2): 2 µM
- MIC under physiological salt concentration, MgCl2 (E. coli ATCC 25922 [4]; 1 mM MgCl2): 4 µM
- MIC under physiological salt concentration, CaCl2 (E. coli ATCC 25922 [4]; 2 mM CaCl2): > 32 µM
- MIC under physiological salt concentration, KCl (E. coli ATCC 25922 [4]; 4.5 mM KCl): 2 µM
- MIC under physiological salt concentration, NaCl (E. coli ATCC 25922 [4]; 150 mM NaCl): 2 µM
- MIC under physiological salt concentration, GM (E. coli ATCC 25922 [4]; geometric mean of the MIC values in the seven salt solutions): 3.62 µM
- MIC under physiological salt concentration, Fold (E. coli ATCC 25922 [4]; increase of the MIC value (GM in salts) over the control without salts): 1.81
- hemolysis (blood cells destroyed) (human red blood cells): approximately 23%
- ability to damage or destroy the bacterial cell wall (NPN fluorescence) (E. coli ATCC 25922 [5]): better than that of melittin
- plasma membrane potential (DiSC3-5 fluorescence intensity) (E. coli ATCC 25922 [6]; lowest tested concentration (1 µM)): caused a rapid increase in fluorescence intensity
- damage to plasma membrane potential compared with melittin (DiSC3-5) (E. coli ATCC 25922 [6]; rLG compared with 16 µM melittin): stronger than that of 16 µM melittin
- internal morphology by TEM (E. coli ATCC 25922 [7]): the membrane of E. coli was destroyed, and the cell contents flowed out
- MIC, Control (E. coli ATCC 25922 [8]): 2 µM

Source: article PMC8305873, “Design and heterologous expression of a novel dimeric LL37 variant in Pichia pastoris” (Microbial Cell Factories, 2021)
